Measured values published in patent US7060451B2, “Methods for screening GABA-modulatory compounds for specified pharmacological activities” (Neurogen Corporation, priority 1999, dated 2006).
Marks after values point to notes of the source that are not given here.

Legend:
[1] = target: GABAA receptors (benzodiazepine site, Ro15-1788 binding sites), rat cortex; experiment: Ro15-1788 competition binding assay, rat cortex membranes; conditions: displacement of 3H Ro15-1788, read-out: Ro15-1788 binding, K1
Description: Rat cortex membranes are prepared by homogenizing one or two previously frozen rat cortexes in 30 ml of 25 mM Tris Buffer, pH 7.4. The homogenate is centrifuged for 10 minutes at 500× g. The supernatant is then transferred to a clean centrifuge tube and the pellet discarded. The supernatant is spun for 20 minutes at 48,000× g. The supernatant from this spin is discarded and the pellet is resuspended in 30 ml of 25 mM Tris Buffer, pH 7.4 and centrifuged for an additional 10 minutes at 48,000× g. The supernatant from the final spin is discarded and the membrane pellet is resuspended in 100 mL Tris buffer per gram of cortex used.
The cortex membrane preparation is used to perform either percent inhibition or competition binding assays. In order to determine percent inhibition 300 μl of resuspended membranes are mixed with 200 μl ^3H labeled Ro15-1788 (final concentration 2.5 nM) and incubated for 1 hour on ice in the presence of 2 μl test compound in DMSO (final concentration 4 μM). Membranes are harvested onto untreated filtermats. The filtermats are dried and the ^3H Ro15-1788 signal is counted in a scintillation counter. Nonspecific binding is determined by displacement of ^3H Ro15-1788 with 10 μM Diazepam (RBI) or any other compound known to bind tightly at the benzodiazepine site.
K1 values are calculated according to the Cheng-Prussof equation.

[2] = target: α1β2γ2 GABAA subtype receptor (Homo sapiens, UniProt P14867+P18507); experiment: oocyte electrophysiology, two electrode voltage-clamp, potentiation of GABA current; type: cell-based; conditions: Xenopus oocytes, human subunits, GABA EC10; for Emax: read-out: oocyte electrophysiology maximum potentiation (%) α1β2γ2
Description: (§1) Assays are carried out as described previously in White and Gurley, 1995 and White, et al., 1995. Xenopus laevis oocytes are enzymatically isolated and injected with non-polyadenylated cRNA for human derived α, β and γ GABAA subunits, respectively. In more preferred embodiments cRNA for the α1β2γ2, α2β3γ2, α3β3γ2, and α5β3γ2 subunit combinations are injected. Only one of these subunit combinations is injected per cell. For each subunit combination, sufficient message is injected to result in current amplitudes of >10 nA when 1 μM GABA is applied. Electrophysiological recordings are carried out using the two electrode voltage-clamp technique at a membrane holding potential of −70 mV.
(§2) Compounds are evaluated against a GABA concentration that evokes <10% (EC10) of the maximal evocable GABA current. Each oocyte is exposed to increasing concentrations of compound in order to evaluate a concentration/effect relationship.
(§3) Specificity of a compound for the Ro15-1788 site is determined following completion of the concentration/effect curve. After washing the oocyte sufficiently to remove previously applied compound, the oocyte is exposed to GABA and 1 μM Ro15-1788, followed by exposure to GABA, 1 μM Ro15-1788, and compound. Percent change due to addition of compound is calculated as described above. Any percent change observed in the presence of Ro15-1788 is subtracted from the percent changes in current amplitude observed in the absence of 1 μM Ro15-1788. These net values are used for the calculation of average activity and EC50 values.
(§4) To evaluate average activity and EC50 values, the concentration/effect data are averaged across cells and fit to the logistic equation. Average values are reported as mean ±standard error.

[3] = target: α2β3γ2 GABAA subtype receptor (Homo sapiens, UniProt P18507+P47869); experiment: as above; type: cell-based; conditions: Xenopus oocytes, human subunits, GABA EC10
Description: as §1, §2, §3, §4

[4] = target: α3β3γ2 GABAA subtype receptor (Homo sapiens, UniProt P18507+P34903); experiment: as above; type: cell-based; conditions: Xenopus oocytes, human subunits, GABA EC10
Description: as §1, §2, §3, §4

[5] = target: α5β3γ2 GABAA subtype receptor (Homo sapiens, UniProt P18507+P31644); experiment: as above; type: cell-based; conditions: Xenopus oocytes, human subunits, GABA EC10; for Emax: read-out: oocyte electrophysiology maximum potentiation (%) α5β3γ2
Description: as §1, §2, §3, §4

[6] = tested on: rats; experiment: spatial water maze; type: in vivo; conditions: rat
[7] = tested on: rats; experiment: elevated plus maze; type: in vivo; conditions: rat, IV, statistically significant response (anxiolytic effect)
Description: The elevated plus maze model capitalizes on rats' innate fear of open, elevated places. The test apparatus is an elevated plus maze consisting of two open arms and two closed arms. A rat will naturally chose to spend more time on the closed arms of the maze than on the open arms but that if an efficacious anxiolytic compound is administered to the rat prior to the test the amount it of time the rat spends in the open arms is increased.
Test compound is administered IV in a 50% PEG (polyethylene glycol) vehicle 5 minutes prior to the test session. A range of compound doses is typically used and 8-10 rats are tested at each dose. The rat is placed in the center of the maze facing one of the open arms. The animal's locomotion is tracked over a five minute test session using photocells interfaced to a computer. The computer measures the number of entries into each arm and the time spent on each arm. An anxiolytic effect in the elevated plus maze model is defined by an increase in the percentage of time spent on the open arms in compound versus vehicle treated animals.

[8] = tested on: rats; experiment: spontaneous locomotor activity; type: in vivo; conditions: rat, in vivo, iv, 15 min
Description: Spontaneous locomotor activity can be measured to determine sedative effects of compounds. Locomotor activity is measured in eight computerized Digiscan-16 Animal Activity Monitors (Omnitech Electronics, Columbus, Ohio) equipped with 48 infrared photocell emitters and detectors. Each box is constructed of Plexiglas sides and floor. Horizontal activity is detected by a set of horizontal sensors on the front to back walls and a second group of sensors on the side to side walls located 5 cm above the cage floor. Vertical activity is detected by a third set of sensors on the side to side walls located 13.5 cm above the cage floor. The rats are tested in the presence of white noise (62 dB) and red St light (60 watt).
Test compound is administered IV in a 50% PEG vehicle 5 minutes prior to the test session. A range of compound doses is typically used and 6 to 8 rats are tested at each dose. The animal's movement time, vertical activity, and total distance traveled are tracked over a 15 minute test session. A sedative, or hypnotic, effect in the spontaneous locomotor activity model is defined by a decrease in any two of these three measures relative to animals given vehicle alone.

[9] = tested on: rats; experiment: Porsolt forced swim test; type: in vivo; conditions: rat, administered IV, statistically significant response
Excerpt: The effects measured in this model have been correlated to antidepressant efficacy for drugs. The paradigm of this model is that an effective antidepressant compound will cause a rat to make greater attempts to escape a water-filled cylinder than a rat given vehicle only.
Animals used in this study were non-naive male Sprague Dawley Rats (SASCO, St. Louis) weighing between 280-350 grams. The test apparatus consists of 6 clear Plexiglas cylinders 40 cm high×19 cm wide. Cylinders are filled to 18 cm with 25° C. water. Each rat is placed in a cylinder for a 15 minute training session. Following either subchronic or acute dosing of either vehicle (0.5% methylcellulose) of compound, animals are brought back 24 hours later for a 5 minute test session. These test session is videotaped for later scoring.
Subchronic dosing consists of administering drug three times in the 24-hour period between training and testing. The drug is administered 24 hrs., 5 hrs., and 1 hr. prior to the test session. Acute dosing consists of administering the drug once, 1 hour prior to the test session. Scoring is done using a time-sampling computer program written in Visual Basic and run in DOS. […] These sampling score are then converted into percentages of the test session.

[10] = tested on: rats; experiment: step-down passive avoidance; type: in vivo; conditions: rat, IV, cognitive enhancement
Excerpt: In step-down passive avoidance a rat is placed on a platform located in the center of an electrified grid floor that is contained within a large (45 cm×45 cm×50 cm) white translucent Plexiglas® enclosure. The natural inclination of the rat is to step off the platform and investigate its surroundings. […] Each time the animal steps off the platform it receives a mild foot shock of 2 mAmps×6 sec. Following each shock the animal is removed from the box, placed in its cage for a one minute inter-trial interval, and then returned to the platform. The latency to step down on each trial, the number of trials taken to reach criterion during training and the retention latency are collected.
Testing is conducted approximately 24 hrs. after training. Drug-free animals are placed on the platform in the box in which they will have been trained and the latency to step down onto the grid floor is recorded for one trial as a measure of memory retention.

[11] = tested on: bicuculline-induced seizures in rats; experiment: bicuculline seizure threshold test; type: in vivo; conditions: rat, compound infused 5 minutes before bicuculline
Excerpt: This test provides a measure of whether the test compound is proconvulsant by measuring whether the test compound produces any change in the dose of the seizure inducing drug, bicuculline, needed to elicit seizures in rats. Test compounds must show <25% decrease in seizure threshold or p>0.05 significance to be considered as drug candidates.
Adult male Sprague-Dawley rats (175-300 g) are weighed and placed in a rat restrainer. A Teflon® indwelling catheter is placed in one of the lateral tail veins and held in place with surgical tape. The catheter and a 3.0 cc syringe are connected by a length of PE-100 tubing fitted with Hamilton male and female adapter. Patency of catheter placement is tested by backflow of venous blood and ready infusion of less than 2 ml of saline solution. Animals are placed in a clear acrylic cage for behavioral observation.
The test compound is prepared in either 25% or 50% polyethylene glycol 400 (PEG) vehicle. A bicuculline (BIC) stock solution of 1.0 mg/ml BIC in 25% PEG/75% 1N HCl is also prepared. […]
Test compound is infused 5 minutes prior to the start of bicuculline infusion. […] The time elapsed from the start of bicuculline infusion to first myoclonic jerk (first head/neck twitch), the initiation of full myoclonus (writhing), and final forelimb extension is all recorded using a digital stopwatch. […]

Chain of α1β2γ2 GABAA subtype receptor (P14867 28-456): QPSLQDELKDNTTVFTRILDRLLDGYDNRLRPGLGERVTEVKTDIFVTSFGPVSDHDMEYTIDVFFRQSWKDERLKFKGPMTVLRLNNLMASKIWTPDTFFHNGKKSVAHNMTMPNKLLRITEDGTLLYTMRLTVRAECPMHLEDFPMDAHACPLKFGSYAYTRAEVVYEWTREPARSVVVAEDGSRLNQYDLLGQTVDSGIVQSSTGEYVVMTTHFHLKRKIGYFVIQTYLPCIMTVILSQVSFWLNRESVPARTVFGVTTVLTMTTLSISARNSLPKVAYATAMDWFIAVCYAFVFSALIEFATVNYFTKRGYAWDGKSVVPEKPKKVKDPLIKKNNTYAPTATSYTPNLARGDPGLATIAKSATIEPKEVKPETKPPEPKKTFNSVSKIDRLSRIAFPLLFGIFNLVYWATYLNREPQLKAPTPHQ
Chain of α1β2γ2 GABAA subtype receptor (P47870 25-512 partner limits assumed): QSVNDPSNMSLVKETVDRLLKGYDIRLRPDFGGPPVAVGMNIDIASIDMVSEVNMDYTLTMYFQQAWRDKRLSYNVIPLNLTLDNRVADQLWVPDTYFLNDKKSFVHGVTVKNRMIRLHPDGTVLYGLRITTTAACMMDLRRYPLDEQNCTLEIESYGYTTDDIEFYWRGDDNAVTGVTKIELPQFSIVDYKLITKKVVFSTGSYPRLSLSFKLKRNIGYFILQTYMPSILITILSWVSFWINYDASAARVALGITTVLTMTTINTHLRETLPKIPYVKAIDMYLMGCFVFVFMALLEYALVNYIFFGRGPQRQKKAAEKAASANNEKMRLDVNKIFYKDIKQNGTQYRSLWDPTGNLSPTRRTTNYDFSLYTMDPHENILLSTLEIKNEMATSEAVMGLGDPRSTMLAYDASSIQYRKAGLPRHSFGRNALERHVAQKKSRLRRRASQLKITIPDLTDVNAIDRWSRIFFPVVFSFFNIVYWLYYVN
Chain of α1β2γ2 GABAA subtype receptor (P18507 40-475): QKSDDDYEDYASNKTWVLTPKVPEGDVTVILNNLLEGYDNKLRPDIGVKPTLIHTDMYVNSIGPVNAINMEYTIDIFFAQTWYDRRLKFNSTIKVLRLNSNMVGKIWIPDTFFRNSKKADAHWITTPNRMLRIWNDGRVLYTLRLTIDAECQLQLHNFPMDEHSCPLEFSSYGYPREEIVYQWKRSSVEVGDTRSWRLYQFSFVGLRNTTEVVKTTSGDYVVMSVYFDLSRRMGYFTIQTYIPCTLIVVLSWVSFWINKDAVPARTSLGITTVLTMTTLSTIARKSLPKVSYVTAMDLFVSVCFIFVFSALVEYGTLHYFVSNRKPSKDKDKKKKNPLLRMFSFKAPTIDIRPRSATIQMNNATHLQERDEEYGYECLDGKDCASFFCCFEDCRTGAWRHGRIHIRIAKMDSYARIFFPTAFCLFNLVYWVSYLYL
Chain of α3β3γ2 GABAA subtype receptor (P34903 29-492): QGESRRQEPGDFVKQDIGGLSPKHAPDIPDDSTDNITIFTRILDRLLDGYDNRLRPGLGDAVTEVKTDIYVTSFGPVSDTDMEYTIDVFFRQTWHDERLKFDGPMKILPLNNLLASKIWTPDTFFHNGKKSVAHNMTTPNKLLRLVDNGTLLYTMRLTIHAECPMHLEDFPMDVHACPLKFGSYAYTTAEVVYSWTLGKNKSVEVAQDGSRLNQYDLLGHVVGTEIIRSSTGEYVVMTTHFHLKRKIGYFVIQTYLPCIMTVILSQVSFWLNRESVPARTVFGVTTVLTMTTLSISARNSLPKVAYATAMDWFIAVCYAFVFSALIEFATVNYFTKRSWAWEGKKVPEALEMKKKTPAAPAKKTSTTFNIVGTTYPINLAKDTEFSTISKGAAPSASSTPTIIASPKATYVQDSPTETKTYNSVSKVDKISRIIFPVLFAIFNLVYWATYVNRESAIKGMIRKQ
Chain of α3β3γ2 GABAA subtype receptor (P28472 26-473 partner): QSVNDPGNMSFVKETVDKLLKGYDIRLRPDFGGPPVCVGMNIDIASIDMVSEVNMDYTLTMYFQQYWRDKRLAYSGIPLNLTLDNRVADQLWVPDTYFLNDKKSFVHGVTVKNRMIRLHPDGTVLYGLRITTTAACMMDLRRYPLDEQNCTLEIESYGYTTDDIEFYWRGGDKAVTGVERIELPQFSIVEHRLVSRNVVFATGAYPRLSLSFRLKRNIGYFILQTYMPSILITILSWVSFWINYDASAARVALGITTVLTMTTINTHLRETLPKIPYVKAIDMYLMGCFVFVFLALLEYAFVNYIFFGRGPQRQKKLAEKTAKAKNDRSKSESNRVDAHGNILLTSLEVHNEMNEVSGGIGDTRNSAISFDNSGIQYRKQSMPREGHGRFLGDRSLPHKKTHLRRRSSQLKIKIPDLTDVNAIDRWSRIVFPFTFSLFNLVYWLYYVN
Chain of α3β3γ2 GABAA subtype receptor (P18507 40-475): as the sequence (P18507 40-475) above
Chain of α2β3γ2 GABAA subtype receptor (P47869 29-451): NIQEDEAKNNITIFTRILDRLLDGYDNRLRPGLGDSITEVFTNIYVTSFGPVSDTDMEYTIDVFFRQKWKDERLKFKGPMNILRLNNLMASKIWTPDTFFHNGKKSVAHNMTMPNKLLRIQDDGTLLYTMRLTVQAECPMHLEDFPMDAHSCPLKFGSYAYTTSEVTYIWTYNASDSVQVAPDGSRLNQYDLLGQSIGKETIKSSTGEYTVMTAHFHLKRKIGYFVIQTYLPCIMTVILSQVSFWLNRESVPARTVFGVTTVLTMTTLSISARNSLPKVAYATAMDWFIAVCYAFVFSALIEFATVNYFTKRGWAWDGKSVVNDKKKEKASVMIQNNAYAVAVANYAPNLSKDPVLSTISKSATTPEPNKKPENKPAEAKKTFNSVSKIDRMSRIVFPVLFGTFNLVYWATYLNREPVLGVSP
Chain of α2β3γ2 GABAA subtype receptor (P28472 26-473 partner): as the sequence (P28472 26-473 partner) above
Chain of α2β3γ2 GABAA subtype receptor (P18507 40-475): as the sequence (P18507 40-475) above
Chain of α5β3γ2 GABAA subtype receptor (P31644 32-462): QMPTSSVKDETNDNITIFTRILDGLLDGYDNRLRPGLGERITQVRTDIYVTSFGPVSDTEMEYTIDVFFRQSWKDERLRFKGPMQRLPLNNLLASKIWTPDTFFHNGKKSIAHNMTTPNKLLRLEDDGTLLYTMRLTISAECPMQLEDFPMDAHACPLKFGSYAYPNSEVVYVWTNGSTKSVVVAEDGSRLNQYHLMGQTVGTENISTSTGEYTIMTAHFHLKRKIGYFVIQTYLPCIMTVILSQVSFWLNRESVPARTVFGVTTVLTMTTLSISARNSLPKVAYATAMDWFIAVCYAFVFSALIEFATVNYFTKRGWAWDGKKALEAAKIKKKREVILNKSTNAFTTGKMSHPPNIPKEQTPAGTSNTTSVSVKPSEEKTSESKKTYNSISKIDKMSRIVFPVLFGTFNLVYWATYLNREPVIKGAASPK
Chain of α5β3γ2 GABAA subtype receptor (P28472 26-473 partner): as the sequence (P28472 26-473 partner) above
Chain of α5β3γ2 GABAA subtype receptor (P18507 40-475): as the sequence (P18507 40-475) above

SMILES	Ki [1] [nM]	Emax [2] [%]	oocyte electrophysiology maximum potentiation (%) α2β3γ2 [3] [%]	oocyte electrophysiology maximum potentiation (%) α3β3γ2 [4] [%]	Emax [5] [%]	cognitive model (spatial water maze), minimal efficacious dose ([6]; IV)	oocyte electrophysiology maximum potentiation (%) α5β3γ2 [5] [%]	elevated plus maze, minimal efficacious dose [7] [mg/kg]	spontaneous locomotor activity, minimal efficacious dose [8] [mg/kg]	Porsolt swim test, minimal efficacious dose [9] [mg/kg]	oocyte electrophysiology maximum potentiation (%) α1β2γ2 [2] [%]	cognitive model (step-down passive avoidance), minimal efficacious dose [10] [mg/kg]	bicuculline seizure threshold, mean percent decrease in seizure threshold over the dose range studied [11] [%]	cognitive model (spatial water maze), minimal efficacious dose ([6]; PO)	EC50 [5] [nM]
O=C(Nc1ccccc1)c1c[nH]c2c1C(=O)CCCC2 [compound 13]	6.3	-17	9	14	-20	0.125^†† mg/kg	–	–	–	–	–	–	–	–	–
CCOc1ccc(NC(=O)c2c[nH]c3c2C(=O)CCC3)cc1 [compound 3]	–	–	–	–	-11	–	38	0.125	4	20	–	–	–	–	–
O=C1C2C=Nc3ccccc3C2=NN1c1ccccc1 (centres unmarked) [CGS 8216, reference compound]	–	–	−10	−8	–	–	−39	–	–	–	−26	0.06	50	–	–
COc1ccc(F)c(-c2ncc3[nH]c4c(c3n2)CCCC4)c1 [compound 11]	33	-11	21	36	-22	–	–	–	–	–	–	–	–	PO = 10.0^†† mg/kg	–
CCOc1ccc(-n2c(=O)c3c[nH]c4ccccc4n-3c2=O)cc1 [compound 1]	–	–	–	–	-11	–	15	0.03	–	20	12	–	–	–	88
